Results from article PMC6213923, “Meroterpenoids and Isocoumarinoids from a Myrothecium Fungus Associated with Apocynum venetum” (Marine Drugs, 2018).

Legend:
[1] = target: human-sourced α-glucosidase recombinant expressed in Saccharomyces cerevisiae; assay: α-glucosidase inhibitory assay (pNPG substrate); format: biochemical; details: PBS pH 6.8, 37 °C, absorbance at 405 nm, preliminarily investigated, read-out: α-glucosidase inhibition IC50
Experimental: The α-glucosidase inhibitory activity of 1–13 was preliminarily investigated.
The sample was dissolved in sodium phosphate buffer (PBS, pH 6.8) at three concentrations. 10 μL of the sample solution, 20 μL of 2.5 mM pNPG solution (in phosphate buffer) and 20 μL of PBS were mixed in a 96-well microplate and incubated at 37 °C for 5 min. A volume of 10 μL of α-glucosidase diluted to 0.2 U/mL by 0.01 M PBS was then added to each well. After incubating at 37 °C for 15 min, the absorbance at 405 nm was recorded by a Spectra max 190 micro plate reader (Molecular Devices Inc., San Jose, CA, USA). The blank was prepared by adding phosphate buffer instead of the α-glucosidase and the positive control was acarbose. […] The inhibition (%) was calculated as [1 − (ODdrug/ODblank)] × 100%.

Compound | IC50 [1] [µM] | melting point [°C]
C[C@@H]1CC[C@@H]2C(=CC[C@H](O)C2(C)C)[C@]1(C)Cc1c(O)cc(CO)c(C=O)c1O [Compound 4, Myrothecisin D] | 200 | 
CC(=O)O[C@@H]1C[C@@]2(C)[C@@H](CC[C@@H](C)[C@]23Cc2c(cc(CO)c(C=O)c2O)O3)C(C)(C)[C@H]1O [Compound 1, Myrothecisin A] | 500 | 
COc1cc(O)c2c(=O)occ(C(=O)CO)c2c1 [Compound 7, Myrothelactone C] | 36 | 160 to 161
CC(=O)O[C@H]1[C@H](O)C[C@@]2(C)[C@@H](CC[C@@H](C)[C@]23Cc2c(cc(CO)c(C=O)c2O)O3)C1(C)C [Compound 2, Myrothecisin B] | 660 | 
COc1cc(O)c2c(=O)occ(C(O)CO)c2c1 (stereo not shown) [Compound 5, Myrothelactone A] | 320 | 
CC(=O)O[C@H]1CC=C2[C@@H](CC[C@@H](C)[C@@]2(C)Cc2c(O)cc(CO)c(C=O)c2O)C1(C)C [Compound 3, Myrothecisin C] | 58 | 

The next lines start with the values.

IC50 [1] [µM] | melting point [°C] | Compound
470 |  | C[C@H]1O[C@H](O[C@H]2[C@H](O)[C@@H](O)[C@@H](O[C@H]3[C@H](O)[C@@H](O)C(O)O[C@@H]3CO)O[C@@H]2CO)[C@H](O)[C@@H](O)[C@@H]1N[C@H]1C=C(CO)[C@@H](O)[C@H](O)[C@H]1O (stereo partly shown) [acarbose, reference compound]
26 |  | COc1cc(O)c2c(=O)oc(CO)c(CO)c2c1 [Compound 9, tubakialactone B]
370 |  | Cc1c(CO)oc(=O)c2c(O)cc(O)cc12 [Compound 10, acremonone G]
